Reference: US12509424B2, “Compound and composition as PDGF receptor kinase inhibitor” (NIPPON SHINYAKU CO., LTD., priority 2019, dated 2025)

Experiments:
[1] = tested on: pulmonary arterial smooth muscle cells; assay: Suppression of proliferation of pulmonary arterial smooth muscle cells (PDGF-BB stimulation, BrdU); type: cell-based; conditions: PASMC, 24 h; healthy human derived pulmonary arterial smooth muscle cells; human PDGF-BB 10 ng/mL stimulation; BrdU uptake after 1 day; test substance final concentration 3 to 10,000 nM; read-out: Human normal PASMC proliferation suppression (PDGF stimulation_IC50)
Description: (§1) 1. Preparation of Test Substance
Furthermore, it was diluted by 50 times with distilled water.
2. Measurement of Suppression Action Against Proliferation of Pulmonary Arterial Smooth Muscle Cells
The day after healthy human derived pulmonary arterial smooth muscle cells were seeded onto a 96 well plate using a smooth muscle cell proliferation medium, the proliferation medium was replaced with a 0.1% FBS medium, and the cells were cultured for an additional day. A test substance solution was diluted by 10 times with a medium containing BrdU and human PDGF-BB (final concentration of 10 ng/mL, Sigma-Aldrich) and added to cells in equal amounts so as to reach a final concentration of 3 to 10,000 nM. Also, to the human PDGF-BB negative control, BrdU and 0.1% DMSO solution were added. After culturing for 1 day, the amount of BrdU taken up by the proliferating cells was measured using an anti-BrdU antibody.
(§2) 3. Analysis of Measurement Results

PDGFR-β = PDGFR-β (Homo sapiens (Human), UniProt P09619); assay: PDGFR-β tyrosine kinase inhibitory action (HTRF KinEASE-TK); type: biochemical; conditions: PDGFR-β enzyme 1 ng/μL, 30° C. for 30 minutes; read-out: PDGF-β IC50
Description: as §1
This DMSO solution was diluted by 8 times with an assay buffer 1 (50 mM HEPES (pH 7.0), 0.02% NaN3, 0.01% Bovine Serum Albumin, 0.1 mM orthovanadate, 1 mM Dithiothreitol, 5 mM MgCl2, and 1 mM MnCl2) and further diluted by 5 times with an assay buffer 2 (50 mM HEPES (pH 7.0), 0.02% NaN3, 0.01% Bovine Serum Albumin, 0.1 mM orthovanadate, 1 mM Dithiothreitol, 5 mM MgCl2, 1 mM MnCl2, and 40 nM Supplemented Enzymatic Buffer (cisbio)).
2. Measurement of PDGFR-β Tyrosine Kinase Inhibitory Action
For the measurement, the HTRF KinEASE-TK kit from Cisbio Bioassays SAS was used. To a 384 well plate, the test substance solution was added at 4 μL each, then 2 μL of a PDGFR-β enzyme solution (final concentration of 1 ng/μL, Carna Biosciences, Inc.) and 4 μL of a substrate solution obtained by adding 0.6 μM ATP to TK substrate-3-biotin (cisbio) were added, and the solution was allowed to react at 30° C. for 30 minutes at a final concentration of the test substance being 0.01 to 10,000 nM.
Thereafter, 10 μL of a detection solution (cisbio) was added to each well and allowed to react at 30° C. for 1 hour. The fluorescence intensity was measured with a microplate reader (Spectra Max M5, Molecular device).
as §2

Sequence of PDGFR-β (P09619 33-1106): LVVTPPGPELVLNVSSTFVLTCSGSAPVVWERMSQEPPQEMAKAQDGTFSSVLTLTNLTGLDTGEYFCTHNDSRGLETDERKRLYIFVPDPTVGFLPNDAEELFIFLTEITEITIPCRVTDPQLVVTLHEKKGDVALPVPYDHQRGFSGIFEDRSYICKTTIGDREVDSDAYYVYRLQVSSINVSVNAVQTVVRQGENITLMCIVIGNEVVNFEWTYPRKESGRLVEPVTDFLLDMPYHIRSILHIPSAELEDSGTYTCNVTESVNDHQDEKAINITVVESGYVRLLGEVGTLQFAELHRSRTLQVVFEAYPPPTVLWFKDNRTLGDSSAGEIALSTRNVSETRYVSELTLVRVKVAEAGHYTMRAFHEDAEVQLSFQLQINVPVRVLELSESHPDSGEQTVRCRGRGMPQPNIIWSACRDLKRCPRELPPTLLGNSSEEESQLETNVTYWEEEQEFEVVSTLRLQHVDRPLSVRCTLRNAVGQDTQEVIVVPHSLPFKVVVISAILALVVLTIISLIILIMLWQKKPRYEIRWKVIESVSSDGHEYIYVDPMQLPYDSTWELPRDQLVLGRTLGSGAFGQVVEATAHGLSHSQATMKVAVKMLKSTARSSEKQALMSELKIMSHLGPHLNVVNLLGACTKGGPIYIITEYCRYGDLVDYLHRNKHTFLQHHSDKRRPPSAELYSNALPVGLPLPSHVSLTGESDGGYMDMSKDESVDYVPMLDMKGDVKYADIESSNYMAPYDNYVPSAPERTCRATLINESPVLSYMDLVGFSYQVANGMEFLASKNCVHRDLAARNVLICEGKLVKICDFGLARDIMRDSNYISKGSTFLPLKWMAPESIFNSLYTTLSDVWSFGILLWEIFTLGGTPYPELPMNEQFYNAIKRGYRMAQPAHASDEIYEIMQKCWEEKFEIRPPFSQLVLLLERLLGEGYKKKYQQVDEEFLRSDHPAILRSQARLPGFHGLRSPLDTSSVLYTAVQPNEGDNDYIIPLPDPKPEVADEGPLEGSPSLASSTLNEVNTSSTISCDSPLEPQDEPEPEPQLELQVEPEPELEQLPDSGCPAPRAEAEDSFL

| Compound | IC50 [1] | IC50 (PDGFR-β) |
| --- | --- | --- |
| Cc1ccc(C(=O)N[C@@H](CO)[C@@H](O)c2ccccc2)cc1N1CCc2nc(N)ncc2C1 [Example 83, 3-(2-amino-7,8-dihydropyrido[4,3-d]pyrimidin-6(5H)-yl)-N-[(1S,2S)-1,3-dihydroxy-1-phenylpropan-2-yl]-4-methylbenzamide] | 48 nM | 5 nM |
| O=C(N[C@H]1CCCC[C@@H]1O)c1ccc(F)c(/C=C(\F)c2cnc(NCC3CC3)nc2)c1 [Example 202, 3-[(Z)-2-{2-[(cyclopropylmethyl)amino]pyrimidin-5-yl}-2-fluoroethenyl]-4-fluoro-N-[(1S,2S)-2-hydroxycyclohexyl]benzamide] | 33 nM | 77 nM |
| O=C(N[C@H]1CCCC[C@@H]1O)c1ccc(F)c(/C=C(\F)c2cncc(NC3CCOCC3)c2)c1 [Example 185, 4-fluoro-3-[(Z)-2-fluoro-2-{5-[(oxan-4-yl)amino]pyridin-3-yl}ethenyl]-N-[(1S,2S)-2-hydroxycyclohexyl]benzamide] | 28 nM | 5.1 nM |
| Cc1ccc(C(=O)N[C@H]2c3ccccc3C[C@@H]2O)cc1/C=C(\F)c1cncc(CN2CCN(C)CC2)c1 [Example 200, 3-[(Z)-2-fluoro-2-{5-[(4-methylpiperazin-1-yl)methyl]pyridin-3-yl}ethenyl]-N-[(1S,2S)-2-hydroxy-2,3-dihydro-1H-inden-1-yl]-4-methylbenzamide] | 120 nM | 16 nM |
| Cc1ccc(C(=O)N[C@H]2CCCC[C@@H]2O)cc1NCc1cnn2cccnc12 [Example 119, N-[(1S,2S)-2-hydroxycyclohexyl]-4-methyl-3-{[(pyrazolo[1,5-a]pyrimidin-3-yl)methyl]amino}benzamide] | 93 nM | 330 nM |
| Cc1ccc(C(=O)N[C@H]2CCCC[C@@H]2O)cc1NCc1cnc(N[C@H]2CCOC2)nc1 [Example 136, N-[(1S,2S)-2-hydroxycyclohexyl]-4-methyl-3-{[(2-{[(3S)-oxolan-3-yl]amino}pyrimidin-5-yl)methyl]amino}benzamide] | 150 nM | 32 nM |
| CCN(Cc1cc(C(=O)N[C@H]2CCCC[C@@H]2O)ccc1C)c1cncc(-c2ccccc2)c1 [Example 176, 3-{[ethyl(5-phenylpyridin-3-yl)amino]methyl}-N-[(1S,2S)-2-hydroxycyclohexyl]-4-methylbenzamide] |  | 50 nM |
| Cc1ccc(C(=O)N[C@H]2CCCC[C@@H]2O)cc1NCc1cnc2c(c1)OCCN2 [Example 144, 3-{[(3,4-dihydro-2H-pyrido[3,2-b][1,4]oxazin-7-yl)methyl]amino}-N-[(1S,2S)-2-hydroxycyclohexyl]-4-methylbenzamide] | 39 nM | 65 nM |
| Cc1ccc(C(=O)N[C@H]2CCCC[C@@H]2O)cc1NCc1cnc(N[C@@H]2CCOC2)nc1 [Example 135, N-[(1S,2S)-2-hydroxycyclohexyl]-4-methyl-3-{[(2-{[(3R)-oxolan-3-yl]amino}pyrimidin-5-yl)methyl]amino}benzamide] | 390 nM | 120 nM |
| Cc1ccc(C(=O)N[C@H]2CCCC[C@@H]2O)cc1C#Cc1cncc(Br)n1 [Example 74, 3-[(6-bromopyrazin-2-yl)ethynyl]-N-[(1S,2S)-2-hydroxycyclohexyl]-4-methylbenzamide] | 18 nM | 180 nM |
| Cc1ccc(C(=O)N[C@H]2CCCC[C@@H]2O)cc1NCc1cnc(Nc2ccccn2)nc1 [Example 126, N-[(1S,2S)-2-hydroxycyclohexyl]-4-methyl-3-[({2-[(pyridin-2-yl)amino]pyrimidin-5-yl}methyl)amino]benzamide] | 64 nM | 45 nM |
| Cc1ccc(C(=O)N[C@H]2CCCC[C@@H]2O)cc1/C=C(\F)c1cncc(CN2CCN(C)CC2)c1 [Example 181, 3-[(Z)-2-fluoro-2-{5-[(4-methylpiperazin-1-yl)methyl]pyridin-3-yl}ethenyl]-N-[(1S,2S)-2-hydroxycyclohexyl]-4-methylbenzamide] | 500 nM | 100 nM |
| Cc1ccc(C(=O)N[C@H]2CCCC[C@@H]2O)cc1CN(C)c1cncc(-c2ccccc2)c1 [Example 175, N-[(1S,2S)-2-hydroxycyclohexyl]-4-methyl-3-{[methyl(5-phenylpyridin-3-yl)amino]methyl}benzamide] |  | 24 nM |
| O=C(N[C@H]1CCCC[C@@H]1O)c1ccc(F)c(/C=C(\F)c2cnc(NC3CC3)nc2)c1 [Example 203, 3-{(Z)-2-[2-(cyclopropylamino)pyrimidin-5-yl]-2-fluoroethenyl}-4-fluoro-N-[(1S,2S)-2-hydroxycyclohexyl]benzamide] | 200 nM | 61 nM |
| O=C(N[C@H]1CCCC[C@@H]1O)c1ccc(Cl)c(OCc2cncc(-c3ncccn3)c2)c1 [Example 167, 4-chloro-N-[(1S,2S)-2-hydroxycyclohexyl]-3-{[5-(pyrimidin-2-yl)pyridin-3-yl]methoxy}benzamide] | 210 nM | 210 nM |
| Cc1ccc(C(=O)N[C@H]2CCCC[C@@H]2O)cc1/C=C(\F)c1ccc(NCCN(C)C)nc1 [Example 197, 3-[(Z)-2-(6-{[2-(dimethylamino)ethyl]amino}pyridin-3-yl)-2-fluoroethenyl]-N-[(1S,2S)-2-hydroxycyclohexyl]-4-methylbenzamide] | 110 nM | 120 nM |
| Cc1ncc(C(=O)N[C@H]2CCCC[C@@H]2O)cc1C#Cc1cncc(C2CC2)c1 [Example 73, 5-[(5-cyclopropylpyridin-3-yl)ethynyl]-N-[(1S,2S)-2-hydroxycyclohexyl]-6-methylpyridine-3-carboxamide] | 80 nM | 220 nM |
| CNc1ncc(/C(F)=C/c2cc(C(=O)N[C@H]3CCCC[C@@H]3O)ccc2F)cn1 [Example 205, 4-fluoro-3-{(Z)-2-fluoro-2-[2-(methylamino)pyrimidin-5-yl]ethenyl}-N-[(1S,2S)-2-hydroxycyclohexyl]benzamide] | 160 nM | 130 nM |
| Cc1ccc(C(=O)N[C@H]2CCCC[C@@H]2O)cc1/C=C(\F)c1cncc(NC2CCN(C)CC2)c1 [Example 193, 3-[(Z)-2-fluoro-2-{5-[(1-methylpiperidin-4-yl)amino]pyridin-3-yl}ethenyl]-N-[(1S,2S)-2-hydroxycyclohexyl]-4-methylbenzamide] | 18 nM | 1 nM |
| Cc1ccc(C(=O)N[C@H]2CCCC[C@@H]2O)cc1NC(=O)c1cncc(OCC2CC(F)(F)C2)c1 [Example 54, 5-[(3,3-difluorocyclobutyl)methoxy]-N-(5-{[(1S,2S)-2-hydroxycyclohexyl]carbamoyl}-2-methylphenyl)pyridine-3-carboxamide] | 340 nM | 40 nM |
| Cc1ncc(C(=O)N[C@H]2CCCC[C@@H]2O)cc1/C=C(\F)c1ccc(N)nc1 [Example 189, 5-[(Z)-2-(6-aminopyridin-3-yl)-2-fluoroethenyl]-N-[(1S,2S)-2-hydroxycyclohexyl]-6-methylpyridine-3-carboxamide] | 90 nM | 200 nM |
| Cc1ccc(C(=O)N[C@H]2CCCC[C@@H]2O)cc1C#Cc1cncc(NCC2CC2)n1 [Example 72, 3-({6-[(cyclopropylmethyl)amino]pyrazin-2-yl}ethynyl)-N-[(1S,2S)-2-hydroxycyclohexyl]-4-methylbenzamide] | 70 nM | 10 nM |
| Cc1ccc(C(=O)N[C@H]2CCCC[C@@H]2O)cc1NCc1ccc(NC(=O)C2CCOCC2)nc1 [Example 137, N-{5-[(5-{[(1S,2S)-2-hydroxycyclohexyl]carbamoyl}-2-methylanilino)methyl]pyridin-2-yl}oxane-4-carboxamide] | 60 nM | 41 nM |
| CCOc1cncc(C(=O)Nc2cc(C(=O)N[C@H]3CCCC[C@@H]3O)ccc2C)c1 [Example 50, 5-ethoxy-N-(5-{[(1S,2S)-2-hydroxycyclohexyl]carbamoyl}-2-methylphenyl)pyridine-3-carboxamide] | 270 nM | 61 nM |
| CC(=O)Nc1ccc(CNc2cc(C(=O)N[C@H]3CCCC[C@@H]3O)ccc2C)cn1 [Example 116, 3-{[(6-acetamidopyridin-3-yl)methyl]amino}-N-[(1S,2S)-2-hydroxycyclohexyl]-4-methylbenzamide] | 120 nM |  |
| Cc1ccc(C(=O)N[C@H]2CCCC[C@@H]2O)cc1OC(C)c1cncc(-c2ccccc2)c1 (stereo partly drawn) [Example 172, N-[(1S,2S)-2-hydroxycyclohexyl]-4-methyl-3-[1-(5-phenylpyridin-3-yl)ethoxy]benzamide] |  | 190 nM |
